Test [1] concerns the target T1, human recombinant N-terminal Hsp90α (Homo sapiens, UniProt P07900).
T1 construct: human recombinant N-terminal Hsp90α protein; purchased Reaction Biology Corporation (RBC, Malvern, PA, USA; assay service)
Description: Fluorescence polarization competition assay with FITC-GM probe (Reaction Biology Corporation). It counts as binding. To be noted: FITC-GM probe.

A further test has as its system MCF-7 cells. Briefly: MTT antiproliferative assay, MCF-7. It counts as cell-based, human. To be noted: Homo sapiens, MCF7, 72 h. The protocol: The growth inhibitory effects of the test compounds, at 10 µM dose, were determined after 72 h incubation using the 3-(4,5-dimethylthiazol-2-yl)-2,5-diphenyl tetrazolium bromide (MTT) assay. […] Such modest cellular outcomes of those purine derivatives may be attributed to their lower lipophilic characters, which in turn restrict their cellular permeability into cancer cells. […] The 2-phenyloxazole-substituted purine 8 exerted reasonable antiproliferative activity, with GI values of 33.27% and 37.46% against MCF-7 and SK-BR-3 cells, respectively.
(§1) Cytotoxic activity of certain Hsp90 inhibitors against human cancer cell lines (MCF-7, SK-BR-3, and HCT116) was investigated using the MTT assay following the reported procedure. Cells were seeded into 96-well plates at a density of 3000 cells per well (MCF-7, HCT116, SK-BR-3 cells per each well). The compounds were added into cells and incubated for 72 h. Then, absorbance at 450 nm was measured using a Microplate Absorbance Reader (Bio-Rad, Hercules, CA, USA).

Test [2] deals with HSP90 client proteins (EGFR, Akt), Hsp70 in MCF7 cells. Description: Western blot of HSP90 client proteins and Hsp70 in MCF7 cells. It counts as cell-based, human. To be noted: 24 h. The protocol: Furthermore, the effect of compound 14 on cellular biomarkers of the HSP90 inhibition was evaluated to obtain insights about the molecular mechanisms triggering its anticancer activity. MCF7 cells were incubated with various doses of compound 14 (0.5, 1, 5, 10, and 20 μM) for 24 h, and the expression levels of HSP90 client proteins (EGFR, Akt, and Cdk4), Hsp90, HSP70, and glyceraldehyde-3-phosphate dehydrogenase (GAPDH) were determined by Western blot analysis (Figure 6).
MCF7 cells were seeded in 60 mm culture dishes, incubated overnight, and treated with the indicated concentrations of compound 14 or geldanamycin for 24 h. Cells were then harvested and lysed on ice by radioimmunoprecipitation assay (RIPA) buffer (23 mM Tris-HCl (pH 7.6), 130 mM NaCl, 1% nonidet P-40 (NP-40), 1% sodium deoxycholate, 0.1% SDS) supplemented with protease and phosphatase inhibitor cocktails, and […] of lysate perlane was separated by SDS-PAGE, followed by transferring to a polyvinylidene fluoride (PVDF) membrane (Bio-Rad, Hercules, CA, USA). The membrane was blocked with 5% skim milk in TBS-T, and then incubated with the corresponding primary antibody (EGFR, Akt, Hsp90, Hsp70, or GAPDH). After binding of an appropriate secondary antibody (Santa Cruz, CA, USA) coupled to horseradish peroxidase, proteins were visualized by enhanced chemiluminescence (ECL) according to the instructions of the manufacturer (GE healthcare, Chicago, IL, USA).
Background: Immunoblotting shows a protein as a band on a membrane.

The next test deals with Hsp90α (Homo sapiens, UniProt P07900). Description: Colorimetric determination of ATPase activity of Hsp90. Conditions: 50 µM compound, 30 min, compared to positive control with Hsp90α, duplicate. The format is biochemical. The protocol: The reaction was terminated by adding 200 μL reagent buffer. Followed by incubation with reagent buffer for 30 min at the room temperature, the absorbance was measured at 620 nm using a Biotek-Synergy Neo-Plate Reader (BioTek Instruments, Winooski, VT, USA).

A further test deals with HCT116 cells. Briefly: MTT antiproliferative assay, HCT116. It counts as cell-based, human. To be noted: Homo sapiens, HCT-116, 72 h, 10 μM, read-out: HCT116 % Inh. at 10 μM. The protocol:
The growth inhibitory effects of the test compounds, at 10 µM dose, were determined after 72 h incubation using the 3-(4,5-dimethylthiazol-2-yl)-2,5-diphenyl tetrazolium bromide (MTT) assay.
as §1
In general terms: Tetrazolium dyes change colour on reduction, which living cells bring about.

The subject of a further test is SK-BR-3 cells. Briefly: MTT antiproliferative assay, SK-BR-3. The format is cell-based, human. To be noted: Homo sapiens, SK-BR-3, 72 h.
Text: […] […] Such modest cellular outcomes of those purine derivatives may be attributed to their lower lipophilic characters, which in turn restrict their cellular permeability into cancer cells. […] The 2-phenyloxazole-substituted purine 8 exerted reasonable antiproliferative activity, with GI values of 33.27% and 37.46% against MCF-7 and SK-BR-3 cells, respectively.
as §1

For test [3], the target named is T2, mHsp90ND (N-terminal domain of mouse Hsp90α) (Mus musculus, UniProt P07901).
T2 construct: Hsp90α (residues 9–225 Swiss Prot entry: P07901); His6 (N); made in house; host or cells: Escherichia coli BL21 (DE3) codon plus RIL
Description: Isothermal titration calorimetry (ITC). It counts as binding. Conditions: ITC, 25 °C. The protocol: The PCR product was cloned into plasmid pET28a, which encodes a purification tag consisting of the amino acids His6 at the N-terminal of the protein. mHsp90ND was expressed in Escherichia coli (E. coli) BL21 (DE3) codon plus RIL (Stratagene) cell. The cells were lysed by sonication in 50 mM Tris-HCl (pH 7.4), 100 mM NaCl, 2 mM 2-mercaptoethanol, and 0.2 mM phenylmethylsulfonyl fluoride (PMSF). After centrifugation, mHsp90ND in the supernatant was purified by Ni^2+-chelated Hi-trap chelating column, and HiLoad 26/60 200pg column (GE healthcare, Chicago, IL, USA). After the final step, mHsp90ND was stored in 20 mM Tris-HCl (pH 7.4), 100 mM NaCl, and 1 mM dithiothreitol (DTT).
Stock solutions of those compounds were prepared in dimethyl sulfoxide (DMSO) at 100 mM concentration and stored at −20 °C. The ITC buffer contained 20 mM Tris (pH 8.0), 100 mM NaCl, and up to 2% DMSO. […] The experimental raw data were corrected for dilution by subtracting the values for buffer alone and then fit by a one-site binding model. Titration data were fit using a nonlinear least squares curve-fitting algorithm with three floating variables: stoichiometry, binding constant (KD), and change of enthalpy of interaction.
Background: Isothermal titration calorimetry measures the heat released or taken up as one component is titrated into another.

These results are taken from paper PMC7763603, “Structural Basis for Design of New Purine-Based Inhibitors Targeting the Hydrophobic Binding Pocket of Hsp90” (International Journal of Molecular Sciences, 2020).

By IC50 is commonly meant the point on the concentration scale where inhibition reaches its midpoint. The term GI50 denotes the concentration giving 50% growth inhibition. The low end stands for greater sensitivity of the cells, the high end for lower sensitivity of the cells. The Kd is the equilibrium constant for the complex coming apart.

Consider `Cc1ccc(Cn2cnc3c(Cl)nc(N)nc32)cc1` [Compound 14, 6-Chloro-9-(4-methylbenzyl)-9H-purin-2-amine], for which, in test [1] (10-dose, threefold serial dilution starting at 100 μM, mean of two experiments), the IC50 is 1 µM. Further, the inhibition at 10 µM in test [1] (single dose 10 μM, duplicate, read-out: Hsp90α % Inhibition @10 μM) amounted to 95.4%; in the test with MCF-7 cells (10 μM, read-out: MCF-7 % Inh. at 10 μM), 55.1%; in the test on HCT116 cells, 46.5%; with SK-BR-3 cells (10 μM, read-out: SK-BR-3 % Inh. at 10 μM), 60.9%. Moreover, the GI50 in the test with MCF-7 cells (mean ± SEM of two experiments) was 16.2 ± 0.71 µM; with SK-BR-3 cells (mean ± SEM of two experiments) it was 15.2 ± 2.08 µM. The EGFR expression level result in test [2] (10 μM) is given as “remarkably decreased”. In addition, the Akt expression level entry in test [2] (20 μM) was “remarkably decreased”. For the same molecule, in test [2] (0.5-20 μM, dose-dependent), the Hsp70 expression level result is “upregulated”. In addition, on Hsp90α, the activity at 50 µM came out at 83.6%. Also, the “∆H” value in test [3] is -17.8 ± 0.2 kcal/mol. Moreover, the “∆S” value in test [3] is given as −30.5 cal/mol/deg. Besides, the “N (binding stoichiometry)” value in test [3] (one-site binding model) came out at 0.89. Also, the Kd in test [3] (one-site binding model, read-out: KD) turned out to be 0.41 µM.
